The IC50 is the concentration that inhibits the measured activity by half. As usually defined, the remaining activity is the signal under treatment as a percentage of the control signal. Read a low remaining activity as little activity left.

These results are taken from article PMC9401600 (Chemmedchem, 2022).

Where two headings read alike, the source gives them in different places.

Series [1] deals with T1, G9a (Homo sapiens, UniProt Q96KQ7).
T1 construct: purchased BPS Bioscience 52051
T1 sequence (Q96KQ7 1-1210): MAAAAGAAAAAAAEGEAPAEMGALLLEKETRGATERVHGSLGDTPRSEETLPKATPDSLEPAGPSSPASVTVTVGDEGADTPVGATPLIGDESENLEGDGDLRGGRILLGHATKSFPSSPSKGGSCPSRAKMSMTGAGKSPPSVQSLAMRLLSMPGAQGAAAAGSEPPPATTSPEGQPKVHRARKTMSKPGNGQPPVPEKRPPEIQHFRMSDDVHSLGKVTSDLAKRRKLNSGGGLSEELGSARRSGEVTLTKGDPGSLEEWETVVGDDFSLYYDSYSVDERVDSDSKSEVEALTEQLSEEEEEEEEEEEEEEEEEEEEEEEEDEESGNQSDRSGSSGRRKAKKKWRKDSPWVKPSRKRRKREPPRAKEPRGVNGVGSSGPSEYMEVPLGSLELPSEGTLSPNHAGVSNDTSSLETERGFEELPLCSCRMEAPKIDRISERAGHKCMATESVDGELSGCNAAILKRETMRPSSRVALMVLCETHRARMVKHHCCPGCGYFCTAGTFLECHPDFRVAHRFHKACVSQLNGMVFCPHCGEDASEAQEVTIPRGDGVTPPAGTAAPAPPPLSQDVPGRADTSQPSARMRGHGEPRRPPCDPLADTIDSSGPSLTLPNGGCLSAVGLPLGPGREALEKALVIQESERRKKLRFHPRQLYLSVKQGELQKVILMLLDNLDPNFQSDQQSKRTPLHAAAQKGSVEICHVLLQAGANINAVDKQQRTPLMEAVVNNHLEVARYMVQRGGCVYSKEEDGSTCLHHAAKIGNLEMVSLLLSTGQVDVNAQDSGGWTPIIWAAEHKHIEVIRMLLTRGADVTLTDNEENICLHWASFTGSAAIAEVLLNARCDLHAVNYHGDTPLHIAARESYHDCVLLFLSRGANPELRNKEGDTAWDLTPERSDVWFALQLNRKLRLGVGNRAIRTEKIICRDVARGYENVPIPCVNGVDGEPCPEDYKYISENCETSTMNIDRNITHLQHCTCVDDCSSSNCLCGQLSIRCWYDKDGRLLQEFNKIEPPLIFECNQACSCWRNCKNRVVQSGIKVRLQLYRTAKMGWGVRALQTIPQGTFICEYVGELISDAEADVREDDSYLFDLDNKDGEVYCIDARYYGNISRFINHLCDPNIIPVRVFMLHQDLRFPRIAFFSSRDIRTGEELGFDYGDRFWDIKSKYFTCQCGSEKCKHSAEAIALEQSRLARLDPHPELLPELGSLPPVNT
Also noted: method as in PMID 31141392, PMID 31276898, PMID 29890830, PMID 33661013, PMID 30753076. Conditions: previously reported, dependent on the assay conditions used; cited from earlier work.

Another series has as its system C. elegans strain CL2006. Description: Locomotion assay (motor index). The class given is in vivo, Caenorhabditis elegans. The following applies: CL2006 worms, 0.001-1 μM, chronic treatment, compared with UNC0638. Here is the method:
One of the best‐characterized transgenic AD strains in C. elegans is the CL2006 strain, which contains the Punc‐54::Aβ1–42 transgene, showing a progressive adult‐onset paralysis. Then, to establish a dose‐response profile, the pharmacological impact of G9a inhibition was evaluated in a locomotion assay with this C. elegans strain. We performed a motility assay where animals were placed in the center of a seeded plate and allowed to explore the environment freely. […] N2 (WT), and CL2006 strain were treated with dimethyl sulfoxide (DMSO) 1 %, used as a vehicle, which should not cause a relevant locomotor defective phenotype. […] The motor index for each condition was calculated using the motor performance of Bristol (N2) (WT, 100 %) and the transgenic AD strain (CL2006, 0 %) animals as reference.
Locomotion assay of G9a inhibitors was assessed to obtain dose‐response profile, evaluating the impact of the pharmacology treatment in motor dysfunction presented by the transgenic strains CL2006. Nematodes were synchronized by alkaline hypochlorite treatment, and drug assay was performed as described above, except for the OP50 bacteria OD595 adjusted to 0.9, and the duration of the treatment was 5 days. N2 (WT), and the transgenic strain CL2006 were treated in liquid media for 4 days at 20 °C and 180 rpm, starting at the L1 stage. On day 5 of age, worms were transferred from the 96‐well plates onto an unseeded NGM plate for 45 minutes before starting the trial, allowing the plates to dry and worms. Locomotion assays were performed in 30 mm NGM plates, in which the whole surface of the plate was covered by OP50. 5 to 10 adult nematodes were placed in the center of a circle (with 1 cm of diameter) in the seeded 30 mm NGM plates. After 1 min, the number of animals remaining inside the circle was scored as a locomotor defect. Motor behavior assays were run in triplicates (n=3), with a total of at least 100 animals tested per compound concentration. Motor index establishes a score where treated animals showing the same motor defect as CL2006 have an index of 0 %. […] All the results shown in the figures are calculated using the following formula: Motorindex(%)=(LDCL2006vehicle-LDCL2006drug)/(LDCL2006vehicle-LDWTvehicle)×100 LD=locomotiondefective

Series [2] has as its target T1, G9a. Description: G9a Homogeneous Assay Kit (AlphaLISA) G9a inhibition. Type of series: biochemical. The following applies: for IC50: AlphaLISA, 100 μM SAM and peptide substrate. On the technique in general: In Alpha technology, singlet oxygen from a donor bead excites a nearby acceptor bead.
Description: The percentages of G9a activity for the 10 selected molecules were determined at 100 μM S‐adenosylmethionine (SAM) and peptide substrate using AlphaLISA® technology. These percentages were used to calculate the IC50.
G9a inhibitors were serially diluted between 5 nM and 0.001 nM in 100 % DMSO (Sigma, St. Louis, USA). Then, respective concentrations were subsequently diluted in MilliQ purified water to reach a final concentration ranging between 50 and 0.001 μM in 1 % DMSO in well.
Briefly, a sample containing the G9a enzyme is incubated with the biotinylated substrate plus inhibitor solution for two hours. Next, acceptor beads and primary antibody is added, followed by donor beads. Finally, the Alpha‐counts were read using an AlphaScreen microplate reader. The experiment was run per triplicate. G9aactivity(%)=(C-Cb)/(Ct-Cb)x100
Ct=The chemiluminescence reading in the absence of the compound. The data set here is defined as 100 % activity in the absence of the compound.
Cb=The chemiluminescence reading in absence of enzyme. The data set here is defined as 0 % activity in the absence of the enzyme.
C=The chemiluminescence reading in the presence of the compound.
Data analysis was conducted using GraphPad Prism ver. 9 statistical software. The statistical outliers were identified with Grubb's test and excluded from the analysis. Group comparisons were carried out with a One‐way Analysis of variance (ANOVA), followed by the Dunnett post hoc test. In some cases, comparison between groups was also performed by unpaired t‐test or One‐way ANOVA, followed by Fisher's LSD post hoc test. For the calculation of IC50, non‐linear regressions were performed. […] Values are shown as the mean ± Standard error of the mean (SEM) of at least n=3. Statistical significance was considered when p values were <0.05.
In series [3] the test system is Aβ deposits in CL2006 strain. Description: Thioflavin‐S staining of Aβ aggregation. The class given is in vivo, Caenorhabditis elegans. Conditions: head region, after 5 days of treatment, compared to the vehicle group. Here is the method:
The transgenic AD strain CL2006 is characterized by the expression of human Aβ1‐42 under the control of a muscle‐specific promoter, making it suitable to answer this objective in our work. As we mentioned above, UNC0638 was used as a positive control. […] After 5 days of treatment, adult CL2006 C. elegans were fixed in 4 % Paraformaldehyde/Phosphate‐buffered saline (PBS) (pH 7.5), for 24 hours at 4 °C. […] On the last day, nematodes were stained with 0.125 % Thioflavin‐S (ThS) (Sigma, CAS# 1326–12‐1) in 50 % ethanol (EtOH) for 2 min, destained in 50 % EtOH for 2 min, washed 3 times with PBS. To prepare the glass slide for microscopy, approximately 10 μL volume was transferred on a droplet of Fluoromount G (Electron Microscopy Sciences, CAT#17984‐25). Fluorescence images were acquired using a 20 Å∼ objective of a fluorescence microscope. Aβ in the head region of worms were quantified by counting the number of Th−S positive spots using ImageJ and were expressed as Aβ deposits/anterior area.

The nature of the next series: PAMPA‐BBB assay. Type of series: in vitro ADME. The following applies: pig, PAMPA; PBS:EtOH (70 : 30); values as printed in text; read-out: in vitro permeability (Pe), PAMPA‐BBB. A general note: The PAMPA barrier holds no transporters, so it reflects passive diffusion.
The mark [4] stands for this setting: 0.0001 µM, first data set of Table S2.
Setting [5] is: 0.0001 µM, second data set of Table S2.
[6] abbreviates: 0.0001 µM, third data set of Table S2.
Where [7] appears, read: 0.001 µM, first data set of Table S2.
[8] abbreviates: 0.001 µM, second data set of Table S2.
[9] abbreviates: 0.001 µM, third data set of Table S2.
Where [10] appears, read: 0.01 µM, first data set of Table S2.
Setting [11] is: 0.01 µM, second data set of Table S2.
The mark [12] stands for this setting: 0.01 µM, third data set of Table S2.
The mark [13] stands for this setting: 0.1 µM, first data set of Table S2.
Setting [14] is: 0.1 µM, second data set of Table S2.
Where [15] appears, read: 0.1 µM, third data set of Table S2.
Setting [16] is: 1 µM, first data set of Table S2.
Setting [17] is: 1 µM, second data set of Table S2.
Setting [18] is: 1 µM, third data set of Table S2.
The mark [19] stands for this setting: 10 µM, first data set of Table S2.
Where [20] appears, read: 10 µM, second data set of Table S2.
The mark [21] stands for this setting: 10 µM, third data set of Table S2.
[22] abbreviates: 50 µM, first data set of Table S2.
[23] abbreviates: 50 µM, second data set of Table S2.
[24] abbreviates: 50 µM, third data set of Table S2.

Description for PAMPA‐BBB assay: To evaluate the brain penetration of the different compounds, a parallel artificial membrane permeation assay for BBB was used, following the method described by Di et al..[33] The in vitro Pe of fourteen commercial drugs through lipid extract of porcine brain membrane together with the test compounds were determined. Commercial drugs and assayed compounds were tested using a mixture of PBS:EtOH (70 : 30).

As to `O=C1c2ccccc2-c2onc3c(N4CCCC4)cc(NCCN4CCCC4)c1c23` [Compound 7], on G9a [1], the half-maximal inhibitory concentration (IC50) is 1200 nM.
With `COc1cc2c(cc1OC)-c1c(C)c3cc(OC)c(OC)cc3c[n+]1CC2` [Compound 8, pseudodehydrocorydaline], the IC50 on G9a [1] is 16300 nM.
For `CCc1nccn1CCC(=O)Nc1cccc(NC(=O)CN(C)C)c1` [G], in the series with C. elegans strain CL2006, the “motor index dose‐response profile (in words)” value was “motor index decreased progressively as the dose decreased”. Also, the remaining activity at 0.0001 µM at G9a [2] (setting [4]) was 29.6%; on G9a [2] (setting [5]), 33.7%; at G9a [2] (setting [6]) it was 31.7%. In addition, the remaining activity at 0.001 µM stood at 26% on G9a [2] (setting [7]), 28.7% on G9a [2] (setting [8]) and 27.4% on G9a [2] (setting [9]). The remaining activity at 0.01 µM worked out at 17.6% on G9a [2] (setting [10]), 16.1% on G9a [2] (setting [11]) and 16.8% at G9a [2] (setting [12]). Moreover, the remaining activity at 0.1 µM on G9a [2] (setting [13]) is 11.4%; on G9a [2] (setting [14]), 12.3%; on G9a [2] (setting [15]), 11.9%. Moreover, the remaining activity at 1 µM on G9a [2] (setting [16]) came to 8.7%; on G9a [2] (setting [17]), 10.3%; on G9a [2] (setting [18]), 9.5%. Also, the remaining activity at 10 µM amounted to 8.5% on G9a [2] (setting [19]), 9.1% on G9a [2] (setting [20]) and 8.8% on G9a [2] (setting [21]). Moreover, the remaining activity at 50 µM was 7.7% at G9a [2] (setting [22]), 9.1% on G9a [2] (setting [23]) and 8.4% at G9a [2] (setting [24]). At G9a [2], this compound returned a concentration for half-maximal inhibition (IC50) of 5.8 nM.
Consider `CC(C)c1nccn1C(C)C(=O)Nc1ccc(NC(=O)CN2CCCCC2)cc1` (centres unmarked) [I], for which the “motor index dose‐response profile (in words)” value in the series with C. elegans strain CL2006 was “lowest motor index in the maximum and minimum dose tested”. For the same compound, the remaining activity at 0.0001 µM on G9a [2] (setting [4]) was 30.9%; at G9a [2] (setting [5]), 29.3%; on G9a [2] (setting [6]), 30.1%. Further, the figures for the remaining activity at 0.001 µM on G9a [2] (setting [7]), at G9a [2] (setting [8]) and at G9a [2] (setting [9]) were 24%, 22.5% and 23.2%, respectively. Moreover, the remaining activity at 0.01 µM was 13.5% on G9a [2] (setting [10]), 12.8% at G9a [2] (setting [11]) and 13.2% at G9a [2] (setting [12]). In addition, the figures for the remaining activity at 0.1 µM on G9a [2] (setting [13]), on G9a [2] (setting [14]) and at G9a [2] (setting [15]) were 8.2%, 9.3% and 8.7%, respectively. In addition, the values for the remaining activity at 1 µM on G9a [2] (setting [16]), on G9a [2] (setting [17]) and at G9a [2] (setting [18]) were 6.8%, 7.3% and 7.1%, respectively. Further, the remaining activity at 10 µM at G9a [2] (setting [19]) was determined as 6.6%; on G9a [2] (setting [20]), 5.7%; at G9a [2] (setting [21]), 6.2%. Also, the remaining activity at 50 µM at G9a [2] (setting [22]) came to 5.9%; at G9a [2] (setting [23]) it was 4.8%; at G9a [2] (setting [24]) it was 5.3%. Further, at G9a [2], half-maximal inhibition (IC50) required 3.9 nM.
Consider `COc1cc2c(NC3CCN(C(C)C)CC3)nc(C3CCCCC3)nc2cc1OCCCN1CCCC1` [UNC0638, reference compound], for which the “reduction of Aβ deposition (Thioflavin S‐positive particles)” value in series [3] is reported as “approximately 25%”. For the same compound, the Papp in “PAMPA‐BBB assay” stood at 6.2 ×10⁻⁶ cm/s. For the same compound, the “% G9a activity” value on G9a [2] (setting [4]) worked out at 36.4%; at G9a [2] (setting [5]) it was 37.2%; on G9a [2] (setting [6]), 36.8%; on G9a [2] (setting [7]) it was 34.1%; on G9a [2] (setting [8]), 35.7%; at G9a [2] (setting [9]), 34.9%. Besides, the “% G9a activity” value came out at 17.0% on G9a [2] (setting [10]); 15.3% at G9a [2] (setting [11]); 16.1% at G9a [2] (setting [12]); 7.9% at G9a [2] (setting [13]); 6.8% on G9a [2] (setting [14]); 7.0% at G9a [2] (setting [15]). Further, the “% G9a activity” value on G9a [2] (setting [16]) is reported as 5.2%; on G9a [2] (setting [17]), 5.8%; at G9a [2] (setting [18]) it was 6.3%; on G9a [2] (setting [19]) it was 1.9%; at G9a [2] (setting [20]), 2.6%; on G9a [2] (setting [21]), 1.9%. Besides, the “% G9a activity” value is recorded as 0.1% on G9a [2] (setting [22]), 0.7% on G9a [2] (setting [23]) and 0.3% on G9a [2] (setting [24]).
